This is an account of results in article PMC12596218 (Journal of Lipid Research, 2025).

“And” between values parts separate entries of the source, which are not always exact repeats. Identical values can stand only once. Like-named read-outs stand apart in the source and are kept apart here.

In data set [1] the target is T1, ASBT (Homo sapiens, UniProt Q12908).
T1 construct: stably transfected with the full open reading frames of human NTCP, ASBT, SOAT, OATP1B1, OATP1B3, OATP2B1, and murine Asbt (mAsbt); expressed in transfected cells; host or cells: HEK293 (Flp-In), stably transfected, tetracycline-induced
T1 sequence (Q12908 1-348): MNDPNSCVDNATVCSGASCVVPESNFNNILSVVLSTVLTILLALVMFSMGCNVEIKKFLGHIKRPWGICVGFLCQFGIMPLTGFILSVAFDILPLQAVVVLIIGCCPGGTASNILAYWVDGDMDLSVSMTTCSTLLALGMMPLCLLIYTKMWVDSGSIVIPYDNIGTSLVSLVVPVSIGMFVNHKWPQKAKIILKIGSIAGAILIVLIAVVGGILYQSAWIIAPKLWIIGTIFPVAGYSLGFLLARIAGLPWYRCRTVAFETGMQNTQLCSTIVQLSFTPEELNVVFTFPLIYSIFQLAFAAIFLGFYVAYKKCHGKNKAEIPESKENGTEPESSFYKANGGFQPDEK
Put plainly: [3H]TC transport and inhibition assay in ASBT-HEK293 cells. It is filed as cell-based. To be noted: for IC50: 1 μM [3H]TC, 10 min, ASBT-HEK293, two independent experiments. An excerpt: (§1) Human embryonic kidney HEK293 cells, stably transfected with the full open reading frames of human NTCP, ASBT, SOAT, OATP1B1, OATP1B3, OATP2B1, and murine Asbt (mAsbt) were used as reported ([18], [20], [21], [22], [23]). The NTCP, ASBT, and mAsbt constructs were C-terminally tagged with the FLAG epitope, and the SOAT construct was C-terminally tagged with green fluorescent protein. Non-transfected Flp-In HEK293 cells (Thermo Fisher Scientific) served as the control. All cell lines were maintained at 37°C, 5% CO2 and 95% humidity in DMEM/F-12 medium (Thermo Fisher Scientific) supplemented with 10% fetal calf serum (Sigma-Aldrich), 4 mM L-glutamine (PAA) and penicillin/streptomycin (PAA). Expression of the respective carrier protein was induced by tetracycline treatment at 1 μg/ml (Carl Roth GmbH + Co. KG).
(§2) Cells were seeded onto poly-L-lysine-coated 96-well plates, induced with 1 μg/ml tetracycline, and grown to confluence over 72 h at 37°C. Then, cells were washed with tempered (37°C) phosphate-buffered saline (PBS, containing 137.0 mM NaCl, 2.7 mM KCl, 1.5 mM KH2PO4, and 7.3 mM Na2HPO4, at pH 7.4) and preincubated with 80 μl sodium transport buffer (STB, containing 142.9 mM NaCl, 4.7 mM KCl, 1.2 mM MgSO4, 1.2 mM KH2PO4, 1.8 mM CaCl2, and 20.0 mM HEPES, at pH 7.4) for 5 min at 37°C. For inhibition studies, the medium was replaced by 80 μl STB containing the respective inhibitor or solvent alone and cells were further incubated for 5 min at 37°C. Transport experiments were started by adding 20 μl of a 5-fold concentrated substrate solution (solved in STB). For transport experiments under sodium-free conditions the same buffer composition was used as for STB, but sodium chloride was substituted with equimolar concentrations of choline chloride as previously reported ([20], [24]). Transport experiments were stopped by washing twice with ice-cold PBS and the plates were kept cool on ice until adding the lysis buffer [1% sodium dodecyl sulfate (SDS) and 1 N NaOH]. Then, the cell-associated radioactivity of the respective tritium-labeled substrate or ligand was quantified by liquid scintillation counting using MicroScint-20 scintillation cocktail (Revvity) in a Packard Microplate Scintillation Counter TopCount NXT (Packard Instrument Company). For IC50 transport inhibition measurements, the mean uptake values measured in non-carrier-expressing HEK293 control cells were defined as 0% uptake control and were subtracted from all other values. Values from cells without inhibitor and solvent alone were set to 100%. Finally, all net transport data were expressed as uptake or binding as % of control. All transport or inhibition graphs were generated with GraphPad Prism 6 (GraphPad). Determination of half maximal inhibitory concentrations (IC50) was done by nonlinear regression analysis using the equation log (inhibitor) versus response—variable slope settings. All data points of the IC50 curves represent means ± SD of quadruplicate determinations. For Km measurements, BS uptake in the absence of sodium was regarded as carrier-independent unspecific uptake and was subtracted from the transport rates in the presence of sodium to obtain carrier-specific uptake rates (indicated as dashed lines). From the specific uptake rates, Michaelis Menten Km values were calculated by non-linear regression analysis.

For data set [2], the target named is T1, ASBT. In words: Transport inhibition and recovery assay (inhibitor washout) in ASBT-HEK293 cells. Format: cell-based. The note with it: 3 μM inhibitor 5 min; for ASBT inhibition pattern after inhibitor washout and inhibitor-free incubation: recovery time up to 240 min. As to the method:
HEK293 cells stably expressing ASBT were seeded onto poly-L-lysine-coated 96-well plates, induced with 1 μg/ml tetracycline, and grown to confluence over 72 h at 37°C. Non-carrier-expressing HEK293 cells were used as control. Then, cells were washed with tempered (37°C) PBS and equilibrated for 5 min with STB. […] After inhibitor preincubation, cells were washed with tempered (37°C) PBS and further incubated in inhibitor-free DMEM (Thermo Fisher Scientific) for 30, 60, 120, or 240 min at 37°C. […] Finally, cell associated radioactivity was determined using the MicroBeta2 liquid scintillation counter (Revvity). For each inhibitor, the mean values from noncarrier-expressing HEK293 cells were set to 0% and transport measurements in the absence of inhibitor (solvent control) were set to 100%.
In the second setup, the inhibitor was thoroughly washed out after the preincubation phase and cells were placed on inhibitor-free medium for different time intervals of 0–240 min (indicated by “recovery time” in Fig. 7A).

For another data set, the target named is T2, NTCP (Homo sapiens, UniProt Q14973).
T2 construct: stably transfected with the full open reading frames of human NTCP, ASBT, SOAT, OATP1B1, OATP1B3, OATP2B1, and murine Asbt (mAsbt); expressed in transfected cells; host or cells: HEK293 (Flp-In), stably transfected, tetracycline-induced
T2 sequence (Q14973 1-349): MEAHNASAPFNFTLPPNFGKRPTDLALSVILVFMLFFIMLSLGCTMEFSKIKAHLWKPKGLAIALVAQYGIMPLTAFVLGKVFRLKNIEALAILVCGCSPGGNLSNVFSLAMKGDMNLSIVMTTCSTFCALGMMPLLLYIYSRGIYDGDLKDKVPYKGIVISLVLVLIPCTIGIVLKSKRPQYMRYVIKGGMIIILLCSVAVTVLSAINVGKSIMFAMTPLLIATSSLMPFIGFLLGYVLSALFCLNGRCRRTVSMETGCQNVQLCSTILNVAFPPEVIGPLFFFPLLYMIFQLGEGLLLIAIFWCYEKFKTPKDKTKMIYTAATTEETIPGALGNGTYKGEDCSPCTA
In words: [3H]TC transport and inhibition assay in NTCP-HEK293 cells. It is filed as cell-based. To be noted: 1 μM [3H]TC; for NTCP inhibition (in words): inhibitor up to 100 μM; for IC50: 10 min, NTCP-HEK293, two independent experiments.
Text: as §1, §2

For the next data set, the system named is OATP1B1. The note with it: cited from earlier work; for IC50: read-out: IC50 OATP1B1 inhibition.

Regarding `CCCCC1(CCCC)CS(=O)(=O)c2ccc(N(C)C)cc2[C@@H](c2ccc(OCCCC[N+]34CCN(CC3)CC4)cc2)[C@H]1O` [SC-435], the IC50 against ASBT [1] was 200 nM and 230 nM. Further, the “ASBT inhibition pattern after inhibitor washout and inhibitor-free incubation” value at ASBT [2] was “intermediate inhibition pattern”. Also, on NTCP, the “NTCP inhibition (in words)” value is given as “no significant NTCP inhibition”.
Consider `CCCCC1(CCCC)CN(c2ccccc2)c2cc(SC)c(OCC(=O)N[C@@H](C(=O)NCC(=O)O)c3ccccc3)cc2S(=O)(=O)C1` [elobixibat], for which the 50% inhibitory concentration (IC50) at ASBT [1] was 110 nM and 230 nM; in the data set on OATP1B1 (in vitro studies, ref PMDA Goofice Report on the Deliberation Results), 258 nM; at NTCP, 36300 nM and 66100 nM. On ASBT [1] (measured in this study), the “IC50 ratio for ASBT versus NTCP inhibition” value is 0.002-0.006. The “ASBT inhibition pattern after inhibitor washout and inhibitor-free incubation” value on ASBT [2] was “intermediate inhibition pattern”.
On to `CCCC[C@]1(CC)CS(=O)(=O)c2cc(CNC(CC(=O)O)CC(=O)O)c(OC)cc2[C@@H](c2ccccc2)N1` [linerixibat], for which the IC50 against ASBT [1] was 180 nM and 250 nM; in the data set on OATP1B1 (ref 65 Zamek-Gliszczynski et al. (2021)) it was 2690 nM. The “Transport inhibition at highest substrate concentration” value on ASBT [1] (500 μM [3H]TC) is listed as “full transport inhibition”. For the same compound, the “Slope of IC50 values versus TC substrate concentration” value on ASBT [1] ([3H]TC 0.3-500 μM, linear regression) is reported as 4.0 × 10^−4. For the same compound, on ASBT [2] (0 min recovery), the “ASBT transport activity recovered directly after inhibitor washout” value is given as “about 37%”. The “ASBT recovery after washout and 30 min in inhibitor-free medium” value on ASBT [2] (30 min recovery) is reported as “mostly recovered ASBT”. For the same compound, the “ASBT inhibition pattern after inhibitor washout and inhibitor-free incubation” value on ASBT [2] was “quick and full recovery”. In the data set with OATP1B1, the “Substrate of OATP1B1” value was “is a substrate”. Also, at NTCP, the “NTCP inhibition (in words)” value is on record as “no significant NTCP inhibition”.
For the compound `CCCCC1(CCCC)CS(=O)(=O)c2ccc(N(C)C)cc2[C@@H](c2ccc(OCc3ccc(C[N+]45CCN(CC4)CC5)cc3)cc2)[C@H]1O` [maralixibat], the “ASBT inhibition pattern after inhibitor washout and inhibitor-free incubation” value at ASBT [2] is “retained full ASBT uptake inhibition”. Moreover, the “OATP1B1 inhibition (in words)” value in the data set with OATP1B1 (in vitro, ref FDA NDA 214662 Livmarli) is “In vitro, maralixibat did not inhibit the transporters OATP1B1 and OATP1B3”. On NTCP, the IC50 was 91500 nM and 98500 nM.
For the compound `CCCCC1(CCCC)CN(c2ccccc2)c2cc(SC)c(OCC(=O)N[C@@H](C(=O)N[C@@H](CC)C(=O)O)c3ccc(O)cc3)cc2S(=O)(=O)N1` [odevixibat], the IC50 is 680 nM and 990 nM at ASBT [1]; 308 nM with OATP1B1 (in vitro studies, ref FDA NDA 215498 BYLVAY); 9900 nM and 17000 nM at NTCP. Also, at ASBT [2], the “ASBT inhibition pattern after inhibitor washout and inhibitor-free incubation” value was “retained full ASBT uptake inhibition”. The “OATP1B1 inhibition (in words)” value in the data set on OATP1B1 (ref EMA EPAR Product Information Bylvay) was “Odevixibat does not inhibit OATP1B1 and OATP1B3”.
